“Also recorded” adds a separate entry of the source. Like-named read-outs stand apart in the source and are kept apart here.
What was measured:
TbrCatL = target: T1, TbrCatL (Trypanosoma brucei rhodesiense, UniProt Q95PM0); test: TbrCatL enzymatic inhibition assay (cleavage of fluorogenic substrate Z-FR-AMC); type: biochemical
T1 construct: Conor Caffrey (University of California San Diego)
How it was run: (§1)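 Recombinant enzymes assayed by Z-Phe-Arg-AMC cleavage at 25 °C, fluorescence 340/440 nm over 5–7 min, with 10 min or no enzyme–compound preincubation.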

cruzain [1] = target: T2, cruzain (Trypanosoma cruzi, UniProt P25779); test: biochemical
T2 sequence (P25779 123-337 limits assumed): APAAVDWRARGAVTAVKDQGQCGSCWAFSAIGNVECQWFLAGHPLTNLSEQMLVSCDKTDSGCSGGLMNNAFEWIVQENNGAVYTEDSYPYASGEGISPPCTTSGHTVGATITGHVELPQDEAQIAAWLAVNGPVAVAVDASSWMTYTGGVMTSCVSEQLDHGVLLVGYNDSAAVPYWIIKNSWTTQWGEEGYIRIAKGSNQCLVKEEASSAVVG
How it was run: as §1

cruzain [2] = target: T2, cruzain; test: Aggregation counter-assays: cruzain inhibition at varying Triton X-100 and after pre-incubation with BSA; type: biochemical; set-up: Cruzain is the truncated, recombinant-expressed cruzipain 1; Brian Shoichet (University of California San Francisco); settings: for % Cruzain Inhibition (Mean ± SEM) 0.001% Triton + BSA 1 mg/mL / % Cruzain Inhibition (Mean ± SEM) 0.001% Triton X-100 / % Cruzain Inhibition (Mean ± SEM) 0.01% Triton X-100 / % Cruzain Inhibition (Mean ± SEM) 0.1% Triton X-100: compound µM: MMV687246 12.5, MMV687812 3.125, MMV688179 1.563, MMV688362 3.125, MMV688466 6.25, MMV690028 25
Experimental: To assess the effects of the Triton X-100 concentration on cruzain inhibition, assays were performed using 0.001%, 0.01%, and 0.1% Triton X-100. To evaluate the impact of pre-incubation with bovine serum albumin (BSA), 50 µL of a solution of the compound in the assay buffer containing 0.001% of Triton X-100 was incubated with 4 mg/mL of BSA (Sigma-Aldrich) for 10′ in a 96-well plate. Next, 50 µL of a solution containing circa 2 nM of cruzain in the same buffer was added to each well and incubated for another 10′. Finally, 100 µL of a solution of 5 µM Z-FR-AMC in the same buffer was added to each well and the fluorescence was immediately read. The final compound concentration varies and was selected to be near the compound IC50.
To investigate if inhibition was due to colloidal aggregation, a common cause of unspecific enzyme inhibition in in vitro assays, we employed two well-established experiments: the comparison of percentages of inhibition at varying Triton X-100 concentrations and the effect of compound pre-incubation with BSA on the percentage of inhibition. […] Pre-incubating a compound that aggregates with BSA saturates the protein-binding capacity of the aggregate.

cruzain [3] = target: T2, cruzain; test: Mechanism of inhibition against cruzain (Michaelis-Menten, Lineweaver-Burk); type: biochemical; set-up: Cruzain is the truncated, recombinant-expressed cruzipain 1; Brian Shoichet (University of California San Francisco)
Experimental: Non-linear regression to Michaelis-Menten models and linear regression for the Lineweaver-Burk plot were performed. Ki was estimated by both methods. The effect of the inhibitor concentration on the Km app was evaluated using the General Linear F-test.

[4] = test system: porphobilinogen deaminase; set-up: method as in earlier work; settings: cited from earlier work
DNA minor groove = test system: DNA minor groove; set-up: method as in PMID 18247550, PMID 22497334; settings: SPR, ITC, CD, and Tm experiments; cited from earlier work
[5] = set-up: method as in earlier work; settings: cited from earlier work
SARS-CoV-2 MPro = test system: SARS-CoV-2 MPro; set-up: method as in PMID 33655614; settings: read-out: IC50 against MPro; cited from earlier work
ferrochelatase = test system: ferrochelatase; set-up: method as in earlier work; settings: cited from earlier work
T. cruzi = settings: cited from earlier work
[6] = IC50 (µM ± SEM %) TbrCatL 0′, no pre-incubation
[7] = IC50 (µM ± SEM %) TbrCatL 10′ inc, 10′ pre-incubation
[8] = read-out: Inhibition at 5 µM (Mean ± SEM %) TbrCatL 0′
[9] = read-out: Inhibition at 5 µM (Mean ± SEM %) TbrCatL 10′ inc
[10] = read-out: Inhibition at 100 µM (Mean ± SEM %) TbrCatL 0′
[11] = read-out: Inhibition at 100 µM (Mean ± SEM %) TbrCatL 10′ inc
[12] = read-out: TbrCatL 0’ Inhibition
[13] = read-out: TbrCatL 10’ Inhibition
[14] = IC50 (µM ± SEM %) Cruzain 0′, no pre-incubation
[15] = IC50 (µM ± SEM %) Cruzain 10′ inc, 10′ pre-incubation
[16] = read-out: Cruzain 0’ Inhibition, 0’ (pre-incubation time), sheet "Screening results"
[17] = read-out: Cruzain 10’ Inhibition, 10’ (pre-incubation time), sheet "Screening results"
[18] = read-out: Inhibition at 5 µM (Mean ± SEM %) Cruzain 0′, 5 µM, no pre-incubation, initial screening
[19] = read-out: Inhibition at 5 µM (Mean ± SEM %) Cruzain 10′ inc, 5 µM, 10′ pre-incubation, initial screening
[20] = read-out: Inhibition at 100 µM (Mean ± SEM %) Cruzain 0′, 100 µM, no pre-incubation, solid samples
[21] = read-out: Inhibition at 100 µM (Mean ± SEM %) Cruzain 10′ inc, 100 µM, 10′ pre-incubation, solid samples
[22] = read-out: Inhibition of cruzain or TbrCatL (either enzyme) in the initial screening, 5 µM, either cruzain or TbrCatL, with or without pre-incubation
[23] = IC50 against cruzain and TbrCatL (summary), cruzain and TbrCatL, with or without pre-incubation

T1 sequence (Q95PM0 entry or part of it): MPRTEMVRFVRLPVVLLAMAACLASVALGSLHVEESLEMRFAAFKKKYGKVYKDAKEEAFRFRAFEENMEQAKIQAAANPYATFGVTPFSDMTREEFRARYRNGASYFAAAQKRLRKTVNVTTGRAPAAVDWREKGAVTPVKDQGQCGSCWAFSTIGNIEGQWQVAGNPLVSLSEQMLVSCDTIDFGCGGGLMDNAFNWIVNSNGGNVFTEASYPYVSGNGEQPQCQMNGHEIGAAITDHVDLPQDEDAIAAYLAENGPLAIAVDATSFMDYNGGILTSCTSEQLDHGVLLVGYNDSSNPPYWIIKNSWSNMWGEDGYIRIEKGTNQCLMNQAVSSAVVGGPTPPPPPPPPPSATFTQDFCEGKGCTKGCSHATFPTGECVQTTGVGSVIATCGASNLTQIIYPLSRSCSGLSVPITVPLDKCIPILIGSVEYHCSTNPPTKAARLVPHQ

Structure (SMILES) | IC50 (TbrCatL; [6]) | IC50 (TbrCatL; [7]) | inhibition at 5 µM (TbrCatL; [8]) | inhibition at 5 µM (TbrCatL; [9]) | inhibition at 100 µM (TbrCatL; [10]) | inhibition at 100 µM (TbrCatL; [11]) | inhibition at 5 µM (TbrCatL; [12]) | inhibition at 5 µM (TbrCatL; [13]) | IC50 (cruzain [1]; [14]) | IC50 (cruzain [1]; [15]) | inhibition at 5 µM (cruzain [1]; [16]) | inhibition at 5 µM (cruzain [1]; [17]) | inhibition at 5 µM (cruzain [1]; [18]) | inhibition at 5 µM (cruzain [1]; [19]) | inhibition at 100 µM (cruzain [1]; [20]) | inhibition at 100 µM (cruzain [1]; [21]) | inhibition at 5 µM (cruzain [1]; [22]) | % Cruzain Inhibition (Mean ± SEM) 0.001% Triton + BSA 1 mg/mL (cruzain [2]) | % Cruzain Inhibition (Mean ± SEM) 0.001% Triton X-100 (cruzain [2]) | % Cruzain Inhibition (Mean ± SEM) 0.1% Triton X-100 (cruzain [2]) | further results
CN1CCN(S(=O)(=O)c2ccc(-c3ccc4c(Nc5ccc6nn[nH]c6c5)ccnc4c3)cc2)CC1 [MMV687246] | 9 ± 3 µM | 4.2 ± 0.6 µM | 29 ± 1% | 49 ± 4% | 92 ± 6% | 99 ± 1% | 29% | 49% | 14 ± 5 µM | 10 ± 2 µM | 24% | 39% | 24 ± 3% | 39 ± 3% | 72 ± 1% | 92 ± 3% | ≥ 40% | 45 ± 1% | 62 ± 3% | 32 ± 2% | Change of IC50 with vs without 10′ pre-incubation (cruzain [1]; against cruzain, 10 min): up to 2 fold; % Cruzain Inhibition (Mean ± SEM) 0.01% Triton X-100 (cruzain [2]): 51 ± 0%; Ki (cruzain [3]): 57 ± 6 µM; Mechanism of inhibition of cruzain (cruzain [3]): mixed inhibitor; also recorded: mixed inhibition; α value (mixed inhibition) (cruzain [3]; mixed model): 0.7 ± 0.2
CN1CCN(CCCOc2ncc(Nc3ncc(-c4ccc(C(F)(F)F)c(F)c4)nc3C(N)=O)cn2)CC1 [MMV687812] | 3.45 ± 0.05 µM | 3.6 ± 0.3 µM | 11 ± 3% | 5 ± 1% | 90 ± 2% | 93% | 11% | 5.3% | 2.2 ± 0.3 µM | 2.6 ± 0.03 µM | 42% | 27% | 41 ± 2% | 27% | 100% | 95% | ≥ 40% | 85 ± 1% | 92 ± 0% | 54 ± 1% | IC50 (cruzain [1]; [23]): 2 to 4 µM; Effect of a 10-fold increase in the concentration of Triton X-100 on cruzain inhibition (cruzain [2]; near the IC50): some reduction in the inhibition; Effect of pre-incubation of the compound with BSA on cruzain inhibition (cruzain [2]; near the IC50): did not reduce the inhibition of cruzain
N=C(N)Nc1ccc(-c2ccc(-c3ccc(NC(=N)N)cc3Cl)o2)c(Cl)c1 [MMV688179] | 4 ± 1 µM | 5 ± 2 µM | 50 ± 3% | 58 ± 25% | 100% | 100% | 50% | 58% | 0.46 ± 0.03 µM | 0.53 ± 0.03 µM | 102% | 110% | 98 ± 2% | 100% | 100% | 100% | ≥ 60% | 89 ± 8% | 85 ± 6% | 82 ± 13% | Inhibition of porphobilinogen deaminase [4]: lack of MMV688179 inhibition; IC50 against TbrCatL relative to cruzain (TbrCatL; TbrCatL vs cruzain): 10 fold; Binding to the DNA minor groove (DNA minor groove): known to bind to the DNA minor groove; CC50 [5]: 11.6 µM; IC50 (SARS-CoV-2 MPro): 1.6 µM; Inhibition of ferrochelatase (ferrochelatase): lack of MMV688179 inhibition; EC50 (T. cruzi; read-out: EC50 against T. cruzi): 27 µM; % Cruzain Inhibition (Mean ± SEM) 0.01% Triton X-100 (cruzain [2]): 80 ± 1%; Colloidal aggregation assessment (cruzain [2]; near the IC50): do not suggest aggregation properties near the IC50; Mechanism of inhibition of cruzain (cruzain [3]): competitive inhibitor; also recorded: competition with the substrate; Ki (cruzain [3]; competitive model, read-out: Ki against cruzain from non-linear regression of the Michaelis-Menten competitive model): 0.165 ± 0.063 µM; Ki (cruzain [3]; linear regression of Kmapp, read-out: Ki against cruzain from the linear regression of Kmapp): 0.206 µM
COc1cc(C2=NCCN2)cc2cc(-c3ccc(C4=NCCN4)cc3)oc12 [MMV688362] | 2.9 ± 0.8 µM | 2.3 ± 0.1 µM | 9 ± 1% | 43 ± 4% | 100% | 100% | 9% | 43% | 4.2 ± 0.6 µM | 2.35 ± 0.02 µM | 19% | 27% | 19 ± 1% | 27 ± 3% | 100% | 100% | ≥ 40% | 29 ± 3% | 59 ± 2% | 25 ± 2% | Binding to the DNA minor groove (DNA minor groove): known to bind to the DNA minor groove; IC50 (cruzain [1]; [23]): 2 to 4 µM; EC50 (T. cruzi; ref Pathogen Box data, read-out: EC50 against T. cruzi reported on PB): 13 µM; % Cruzain Inhibition (Mean ± SEM) 0.01% Triton X-100 (cruzain [2]): 41 ± 2%; Effect of pre-incubation of the compound with BSA on cruzain inhibition (cruzain [2]; near the IC50): some reduction in the inhibition
Cn1ccnc1CNCCS(=O)(=O)c1cccc(Nc2ccc(-c3cccc(F)c3)cn2)c1 [MMV688466] | 4 ± 1 µM | 11 ± 4 µM | 29 ± 2% | 54 ± 8% | 96 ± 3% | 100% | – | – | 9 ± 1 µM | 25 ± 6 µM | – | – | 41 ± 2% | 49 ± 5% | 58 ± 27% | 98 ± 1% | ≥ 40% | 96 ± 3% | 83 ± 3% | 82 ± 11% | % Cruzain Inhibition (Mean ± SEM) 0.01% Triton X-100 (cruzain [2]): 32 ± 5%
COc1ccc(C2=NN(C3CCCCCC3)C(=O)C2(C)C)cc1OCCCCOc1ccc(-c2nn[nH]n2)cc1 [MMV690028] | 18 ± 7 µM | 27 ± 3 µM | 49 ± 4% | 23 ± 4% | 100% | 88 ± 3% | – | – | 10 ± 3 µM | 13 ± 5 µM | – | – | 34 ± 8% | 27 ± 4% | 100% | 100% | ≥ 40% | 91 ± 7% | 69 ± 14% | – | –
